The test system of one data set is microtubule. Kind of data set: Microtubule structure. The data set is classed as cell-based.
For data set [1], the system named is NLS-tdTomato expressing Dictyostelium cells. The method, then: NLS-tdTomato expressing Dictyostelium cells were challenged with […] compounds from the ChemBridge Divert-SET library and imaged over three days. Raw data was segmented by CIMPAQ, a designed analytical platform, which rank ordered hits based on their cytokinesis or mitotic inhibitory activity, or lethality. Hits were confirmed through a dose-dependent secondary screening.
Ax3::NLS-tdTomato cells were plated on 384-well COP plates with a MicroFloSelect microplate dispenser (BioTek, Winooski, Vt.) at volumes of 80 μl with a cell concentration of 1000 cells/ml for the 24- and 48-hr time points and at the same volume with a cell concentration of 220 cells/ml for the 72-hr time point. Each plate contained four rows of untreated cells with 0.2% DMSO. For the remaining wells, […] of each small molecule maintained at the Johns Hopkins ChemCORE facility, was added, with a final DMSO concentration of 0.2%. Almost half of the ChemBridge Divert-SET library, which is a 50,000 compound chemical diversity library, was screened over a three-day period on a Becton Dickinson Pathway 855 Bioimager System using a 20× objective (NA 0.75). Each image consisted of a montage of four images collected around the center of the well, resulting in a total size of 1344×1024 pixels per image.
Secondary chemical screening was carried out in quadruplicate, with identical culturing conditions as to the primary screen. 14 mM stocks of each compounds dissolved in 100% DMSO were diluted to the following final concentrations: […], 3.5 nM, 35 nM, 350 nM, 3.5 μM, and 35 μM.
Raw image files from both the primary and secondary screening were processed through CIMPAQ (FIGS. 9E and 9F). The single wavelength fluorescence images were converted from 16-bit format to 8-bit format. The MATLAB Image Processing Toolbox was utilized to segment the images in order to identify the nuclei and cytoplasm. The number of nuclei within each segmented cell was quantified to produce a histogram of nuclei per cell for each image (FIG. 9G). All segmented cells that were coincident with the image edge were disregarded.
Image analysis using CIMPAQ: From the histogram of nuclei per cell count, the ratio of the number of multinucleate cells to the number of mononucleate cells and the ratio of the number of binucleate cells to the number of mononucleate cells were computed. Multinucleate cells are defined as cells that contain >2 nuclei. The distribution of both ratios across multiple wells were simultaneously visualized using a scatter plot, with the ratio of multinucleate cells to mononucleate cells plotted on the x-axis and the ratio of binucleate cells to mononucleate cells plotted on the y-axis (FIGS. 9H and 9I). Other information such as the average number of nuclei per cell, the mean nuclear area, and the normalized histogram with respect to total cell number were also computed.
Hit identification using CIMPAQ: Compounds that generate an increase in the number of multinucleate (>2 nuclei/cell) cells are considered cytokinesis inhibitors. Because nearly all cultured cells, including Dictyostelium, have a low background (typically <5% for WT) of non-mononucleate cells, CIMPAQ spreads the data for each sample by determining the ratio (bi:mono) of binucleate (2 nuclei/cell) to mononucleate cells and the ratio (multi:mono) of multinucleate (>2 nuclei/cell) to mononucleate cells. These two ratios then define a set of Cartesian coordinates, describing the effect of each compound on a given cell-line. The coordinates for each compound are plotted on a two-dimensional graph. CIMPAQ fits the control data to a two-dimensional Gaussian distribution (FIG. 9H) and determines the contour lines for two standard deviations (2SD), 3SD, etc. from the control mean (FIG. 9I).
Hit compounds are rank-ordered based on how many SDs away they are from the untreated wells.

For data set [2], the target named is T1, Dictyostelium myosin II ADCT (Dictyostelium discoideum, UniProt P08799).
T1 construct: fused to the assembly domains of Dictyostelium myosin II (residues 1533-1823); 6xHis (N); mCherry (N); made in house; host or cells: E. coli BL-21 Star (DE3)
T1 sequence (P08799 1533-1823): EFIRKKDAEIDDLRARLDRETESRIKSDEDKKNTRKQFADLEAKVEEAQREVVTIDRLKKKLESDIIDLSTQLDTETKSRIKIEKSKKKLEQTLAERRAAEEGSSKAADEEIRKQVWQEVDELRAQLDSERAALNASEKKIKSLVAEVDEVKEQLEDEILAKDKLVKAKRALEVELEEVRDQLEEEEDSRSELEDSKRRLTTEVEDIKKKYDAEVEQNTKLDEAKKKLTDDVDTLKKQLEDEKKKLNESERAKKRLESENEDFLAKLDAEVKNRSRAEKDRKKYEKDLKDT
Put plainly: In vitro myosin assembly assay, with or without 14-3-3. The data set is classed as biochemical. As to conditions: with or without purified 14-3-3. The source says: The sedimentation assays were used to assess myosin II assembly in cells. The assembly assay used purified proteins (N-terminal 6×His tag (SEQ ID NO: 1), fused to the mCherry fluorophore, fused to the assembly domains of Dictyostelium myosin II (residues 1533-1823), human myosin IIA (residues 1722-1960), and human myosin IIB (residues 1729-1976), and 6×His-tagged (SEQ ID NO: 1) fused Dictyostelium 14-3-3). Purified chicken nonmuscle IIB heavy meromyosin (HMM) was used for in vitro motility.
Bacterial expression plasmids coding for an N-terminal 6×His tag (SEQ ID NO: 1), fused to the mCherry fluorophore, fused to the assembly domains of Dictyostelium myosin II (residues 1533-1823), human myosin IIA (residues 1722-1960), or human myosin IIB (residues 1729-1976) were generated using standard cloning techniques.
Dictyostelium 14-3-3 was also expressed in bacteria as a 6×His-tagged (SEQ ID NO: 1) fusion protein (Zhou Q et al., 2010). Proteins were expressed in BL-21 Star™ (DE3) (Invitrogen) E. coli in LB shaking culture overnight at room temperature. […] Protein purity was verified by SDS-PAGE followed by Coomassie Blue staining, and concentration was quantified by UV absorbance using the calculated extinction coefficient for each protein's amino acid sequence. […]

Take `Nc1ccc(Cl)c(Cl)c1` [3,4-DCA, 3,4-dichloroaniline]: the microtubule structure result in the data set with microtubule is reported as “neither 3,4-DCA nor 4-HAP affected microtubule structure”. Besides, the “cytokinesis inhibition / cellular effect of a single component” value in data set [1] (compound alone) was “limited cellular effect”. Moreover, the “in vitro assembly vs DMSO control” value in data set [2] was “no significant change in in vitro assembly”.

With `CC(=O)c1ccc(O)cc1` [4-HAP, 4-hydroxyacetophenone], the microtubule structure result in the data set on microtubule is recorded as “neither 3,4-DCA nor 4-HAP affected microtubule structure”. Further, in data set [1] (5000 nM), the “lethality to Dictyostelium cells” value was “lethal”. Besides, the “in vitro assembly vs DMSO control” value in data set [2] was “no significant change in in vitro assembly”.

(Values after patent publication US11834401B2, “Treating and preventing diseases by modulating cell mechanics” (THE JOHNS HOPKINS UNIVERSITY, priority 2013, dated 2023).)
